From PubChem BioAssay AID256 (DTP/NCI, 2004)
Values joined by “and” are separate entries in the source; they are usually repeats but may differ in a detail not shown here. Equal entries are not always repeated. Inconclusive results and toxic doses are left out.

Tested on: CD2F1 mice, L1210 leukemia ip, survival T/C
Assay: NCI In Vivo Anticancer Drug Screen. Data for tumor model L1210 Leukemia (intraperitoneal) in CD2F1 (CDF1) mice
Conditions: higher = longer survival
Method in brief: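 Each value reflects a quotient of treated over vehicle control outcomes in mice with a transplanted tumor.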

[1] = endpoint: mean survival time, dose: 100.0 mg/kg/injection, schedule: Q01DX009 (ip), vehicle: saline with Tween-80
[2] = endpoint: mean survival time, dose: 12.5 mg/kg/injection, schedule: Q04DX003 (ip), vehicle: saline
[3] = endpoint: mean survival time, dose: 25.0 mg/kg/injection, schedule: Q04DX003 (ip), vehicle: saline
[4] = endpoint: mean survival time, dose: 200.0 mg/kg/injection, schedule: Q01DX001 (ip), vehicle: saline
[5] = endpoint: mean survival time, dose: 100.0 mg/kg/injection, schedule: Q04DX003 (ip), vehicle: saline
[6] = endpoint: mean survival time, dose: 200.0 mg/kg/injection, schedule: Q01DX009 (ip), vehicle: saline with Tween-80
[7] = endpoint: mean survival time, dose: 400.0 mg/kg/injection, schedule: Q01DX009 (ip), vehicle: saline with Tween-80

## COC12[C@@H]3N[C@@H]3CN1C1=C(C(=O)C(NCCSSCCNC3=C(C)C(=O)C4=C(C3=O)C(COC(N)=O)[C@]3(OC)C5N[C@@H]5CN43)=C(C)C1=O)[C@@H]2COC(N)=O (some centres undefined)
endpoint: mean survival time, dose: 1.5 mg/kg/injection, schedule: Q01DX001 (ip), vehicle: distilled water + Tween-80
  T/C: 109 % of control
endpoint: mean survival time, dose: 1.5 mg/kg/injection, schedule: Q01DX001 (ip), vehicle: water
  T/C: 110 % of control
endpoint: mean survival time, dose: 3.0 mg/kg/injection, schedule: Q01DX001 (ip), vehicle: water
  T/C: 121 % of control
endpoint: mean survival time, dose: 6.0 mg/kg/injection, schedule: Q01DX001 (ip), vehicle: water
  T/C: 122 % of control
endpoint: mean survival time, dose: 12.0 mg/kg/injection, schedule: Q01DX001 (ip), vehicle: distilled water + Tween-80
  T/C: 162 % of control
endpoint: mean survival time, dose: 12.0 mg/kg/injection, schedule: Q01DX001 (ip), vehicle: water
  T/C: 151 % of control
endpoint: mean survival time, dose: 24.0 mg/kg/injection, schedule: Q01DX001 (ip), vehicle: water
  T/C: 104 % of control
endpoint: median survival time, dose: 0.05 mg/kg/injection, schedule: Q01DX009 (ip), vehicle: other
  T/C: 108 % of control
endpoint: median survival time, dose: 0.1 mg/kg/injection, schedule: Q01DX009 (ip), vehicle: other
  T/C: 119 % of control
endpoint: median survival time, dose: 0.2 mg/kg/injection, schedule: Q01DX009 (ip), vehicle: other
  T/C: 119 % of control
endpoint: median survival time, dose: 0.2 mg/kg/injection, schedule: Q04DX003 (ip), vehicle: other
  T/C: 104 % of control
endpoint: median survival time, dose: 0.4 mg/kg/injection, schedule: Q01DX001 (ip), vehicle: other
  T/C: 119 % of control
endpoint: median survival time, dose: 0.4 mg/kg/injection, schedule: Q04DX003 (ip), vehicle: other
  T/C: 110 % of control
endpoint: median survival time, dose: 0.8 mg/kg/injection, schedule: Q01DX001 (ip), vehicle: other
  T/C: 116 % of control
endpoint: median survival time, dose: 0.8 mg/kg/injection, schedule: Q04DX003 (ip), vehicle: other
  T/C: 124 % of control
endpoint: median survival time, dose: 1.6 mg/kg/injection, schedule: Q03DX003 (ip), vehicle: other
  T/C: 151 % of control
endpoint: median survival time, dose: 3.2 mg/kg/injection, schedule: Q01DX009 (ip), vehicle: other
  T/C: 161 % of control
endpoint: median survival time, dose: 3.2 mg/kg/injection, schedule: Q03DX003 (ip), vehicle: other
  T/C: 154 % of control and 176 % of control
endpoint: median survival time, dose: 3.2 mg/kg/injection, schedule: Q04DX003 (ip), vehicle: other
  T/C: 165 % of control
endpoint: median survival time, dose: 6.4 mg/kg/injection, schedule: Q01DX009 (ip), vehicle: other
  T/C: 124 % of control
endpoint: median survival time, dose: 6.4 mg/kg/injection, schedule: Q03DX003 (ip), vehicle: other
  T/C: 173 % of control and 187 % of control
endpoint: median survival time, dose: 6.4 mg/kg/injection, schedule: Q04DX003 (ip), vehicle: other
  T/C: 178 % of control
endpoint: median survival time, dose: 9.6 mg/kg/injection, schedule: Q01DX001 (ip), vehicle: other
  T/C: 168 % of control
endpoint: median survival time, dose: 9.6 mg/kg/injection, schedule: Q03DX003 (ip), vehicle: other
  T/C: 154 % of control
endpoint: median survival time, dose: 9.6 mg/kg/injection, schedule: Q04DX003 (ip), vehicle: other
  T/C: 169 % of control
endpoint: median survival time, dose: 19.2 mg/kg/injection, schedule: Q01DX001 (ip), vehicle: other
  T/C: 160 % of control

## CCOc1ccc(-c2nnc(Nc3ccc(S(=O)(=O)N4CCCCC4)cc3)s2)cc1
endpoint: mean survival time, dose: 25.0 mg/kg/injection, schedule: Q01DX009 (ip), vehicle: saline with Tween-80
  T/C: 95 % of control
endpoint: mean survival time, dose: 50.0 mg/kg/injection, schedule: Q01DX009 (ip), vehicle: saline with Tween-80
  T/C: 90 % of control
[1]
  T/C: 86 % of control

## CCOP(=S)(OCC)Oc1cccc(NC(=O)N(C)C)c1
endpoint: mean survival time, dose: 100.0 mg/kg/injection, schedule: Q04DX003 (ip), vehicle: saline with Tween-80
  T/C: 96 % of control
endpoint: mean survival time, dose: 200.0 mg/kg/injection, schedule: Q04DX003 (ip), vehicle: saline with Tween-80
  T/C: 91 % of control
endpoint: mean survival time, dose: 400.0 mg/kg/injection, schedule: Q04DX003 (ip), vehicle: saline with Tween-80
  T/C: 99 % of control

## CCOC(=O)NC(C)(C)CN(C(=O)OCC)C(C)C
endpoint: mean survival time, dose: 100.0 mg/kg/injection, schedule: Q01DX009 (ip), vehicle: other
  T/C: 102 % of control
endpoint: mean survival time, dose: 200.0 mg/kg/injection, schedule: Q01DX009 (ip), vehicle: other
  T/C: 104 % of control

## NC(=S)N/N=C/c1ccc(Cl)cn1
endpoint: mean survival time, dose: 4.89 mg/kg/injection, schedule: Q01DX009 (ip), vehicle: saline with Tween-80
  T/C: 120 % of control
endpoint: mean survival time, dose: 6.25 mg/kg/injection, schedule: Q04DX002 (ip), vehicle: saline with Tween-80
  T/C: 100 % of control
endpoint: mean survival time, dose: 12.5 mg/kg/injection, schedule: Q04DX002 (ip), vehicle: saline with Tween-80
  T/C: 104 % of control and 108 % of control

## CCN(CC)Cc1cc(Nc2nc(NC3CCC(N(C)C)CC3)c3ccccc3n2)ccc1OC (centres undefined)
[2]
  T/C: 103 % of control
[3]
  T/C: 97 % of control
endpoint: mean survival time, dose: 50.0 mg/kg/injection, schedule: Q04DX003 (ip), vehicle: saline
  T/C: 105 % of control

## CC1(C)CC(=O)C2(CNC3=C(CCC(C)(C)C3)C2)C(=O)C1
endpoint: mean survival time, dose: 50.0 mg/kg/injection, schedule: Q04DX002 (ip), vehicle: saline with Tween-80
  T/C: 91 % of control
endpoint: mean survival time, dose: 100.0 mg/kg/injection, schedule: Q04DX002 (ip), vehicle: saline with Tween-80
  T/C: 91 % of control
endpoint: mean survival time, dose: 200.0 mg/kg/injection, schedule: Q04DX002 (ip), vehicle: saline with Tween-80
  T/C: 100 % of control
endpoint: mean survival time, dose: 400.0 mg/kg/injection, schedule: Q04DX002 (ip), vehicle: saline with Tween-80
  T/C: 91 % of control

## Nc1cc(Cl)c([N+](=O)[O-])cc1O
endpoint: mean survival time, dose: 50.0 mg/kg/injection, schedule: Q01DX009 (ip), vehicle: Klucel (hydroxypropylcellulose) (HPC)
  T/C: 91 % of control
endpoint: mean survival time, dose: 100.0 mg/kg/injection, schedule: Q01DX009 (ip), vehicle: Klucel (hydroxypropylcellulose) (HPC)
  T/C: 94 % of control
endpoint: mean survival time, dose: 200.0 mg/kg/injection, schedule: Q01DX009 (ip), vehicle: Klucel (hydroxypropylcellulose) (HPC)
  T/C: 94 % of control

## CCCN(CCC)S(=O)(=O)c1ccc(NC(=O)OC2CC(C)CCC2C(C)C)cc1 (centres undefined)
endpoint: mean survival time, dose: 100.0 mg/kg/injection, schedule: Q01DX001 (ip), vehicle: saline
  T/C: 105 % of control
[4]
  T/C: 100 % of control
endpoint: mean survival time, dose: 400.0 mg/kg/injection, schedule: Q01DX001 (ip), vehicle: saline
  T/C: 95 % of control

## CCCCN(CCCC)CCCN(CCCOS(C)(=O)=O)CCCOS(C)(=O)=O
endpoint: mean survival time, dose: 12.0 mg/kg/injection, schedule: Q01DX001 (ip), vehicle: saline
  T/C: 110 % of control
endpoint: mean survival time, dose: 12.5 mg/kg/injection, schedule: Q01DX009 (ip), vehicle: saline
  T/C: 121 % of control
[2]
  T/C: 110 % of control
endpoint: mean survival time, dose: 25.0 mg/kg/injection, schedule: Q01DX001 (ip), vehicle: saline
  T/C: 114 % of control
[3]
  T/C: 117 % of control
endpoint: mean survival time, dose: 50.0 mg/kg/injection, schedule: Q01DX009 (ip), vehicle: saline
  T/C: 162 % of control
endpoint: mean survival time, dose: 100.0 mg/kg/injection, schedule: Q01DX009 (ip), vehicle: saline
  T/C: 102 % of control
[5]
  T/C: 160 % of control
[4]
  T/C: 90 % of control

## OC1COCOC1C1OCOCC1O (centres undefined)
[5]
  T/C: 95 % of control
endpoint: mean survival time, dose: 200.0 mg/kg/injection, schedule: Q04DX003 (ip), vehicle: saline
  T/C: 95 % of control
endpoint: mean survival time, dose: 400.0 mg/kg/injection, schedule: Q04DX003 (ip), vehicle: saline
  T/C: 97 % of control

## COc1ccc(C(=O)N/N=C(\C)[C@]2(O)Cc3c(O)c4c(c(O)c3[C@@H](OC3CC(N)C(O)C(C)O3)C2)C(=O)c2c(OC)cccc2C4=O)cc1 (some centres undefined)
endpoint: mean survival time, dose: 0.5 mg/kg/injection, schedule: Q01DX009 (ip), vehicle: water
  T/C: 103 % of control
endpoint: mean survival time, dose: 1.0 mg/kg/injection, schedule: Q01DX009 (ip), vehicle: water
  T/C: 112 % of control
endpoint: mean survival time, dose: 2.0 mg/kg/injection, schedule: Q01DX009 (ip), vehicle: water
  T/C: 118 % of control
endpoint: mean survival time, dose: 4.0 mg/kg/injection, schedule: Q01DX009 (ip), vehicle: water
  T/C: 121 % of control

## O=[N+]([O-])c1ccc2c(c1)COCO2
[1]
  T/C: 97 % of control
[6]
  T/C: 97 % of control
[7]
  T/C: 96 % of control

## CCC1(O)C(=O)OCc2c1cc1n(c2=O)Cc2cc3cc([N+](=O)[O-])ccc3nc2-1 (centres undefined)
endpoint: median survival time, dose: 3.63 mg/kg/injection, schedule: Q04DX002 (ip), vehicle: saline with Tween-80
  T/C: 185 % of control
endpoint: median survival time, dose: 7.25 mg/kg/injection, schedule: Q04DX002 (ip), vehicle: saline with Tween-80
  T/C: 233 % of control
endpoint: median survival time, dose: 7.5 mg/kg/injection, schedule: Q04DX002 (ip), vehicle: saline with Tween-80
  T/C: 183 % of control
endpoint: median survival time, dose: 15.5 mg/kg/injection, schedule: Q04DX002 (ip), vehicle: saline with Tween-80
  T/C: 219 % of control and 103 % of control

## N#Cc1ccccc1NC1OCC(O)C(O)C1O (centres undefined)
[1]
  T/C: 95 % of control
[6]
  T/C: 101 % of control
[7]
  T/C: 94 % of control

## O=C(Nc1cccc2ccccc12)c1ccccc1
endpoint: mean survival time, dose: 100.0 mg/kg/injection, schedule: Q01DX001 (ip), vehicle: saline with Tween-80
  T/C: 95 % of control
endpoint: mean survival time, dose: 200.0 mg/kg/injection, schedule: Q01DX001 (ip), vehicle: saline with Tween-80
  T/C: 95 % of control
endpoint: mean survival time, dose: 400.0 mg/kg/injection, schedule: Q01DX001 (ip), vehicle: saline with Tween-80
  T/C: 92 % of control
